Legend:
[1] = tested on: passive Arthus reaction; test: Anti-inflammatory activity test: passive Arthus reaction (Example of Test 2); assay type: in vivo, male guinea pigs of the Hartley strain; settings: Table 21; 0.1 mg/kg i.v., 30 min before antigen
Experimental: Example of Test 2 (Anti-inflammatory Activity Test)
Male guinea pigs of the Hartley strain weighing 200~250 g were used.
(2) Experimental Materials
The anti-ovalbumin rabbit serum (PCA titer=1/80,000) and ovalbumin were used as the antiserum and antigen, respectively.
The passive Arthus reaction was performed according to the method of Katayama et al. [Katayama, S. et al., Arzeim-Forsch., 31, 1196 (1981)]. That is, guinea pigs were sensitized by an intravenous injection of said anti-ovalbumin rabbit serum (2.5 ml/kg). Thirty minutes after the injection, the Arthus reaction was induced by the intradermal injection of an antigen solution (0.05 ml) containing 0.10 mg of ovalbumin to the abdomen shaved the day before. Two hours after the antigen challenge, the area of intradermal bleeding was measured and used as the index representing the grade of inflammatory reaction. Test compounds were intravenously injected 30 min before the antigen injection. Four guinea pigs per each group were used.
The percent inhibi- is expressed as the bleeding area of the challenged site (%) of the animal group injected with each compound relative to that (100%) of the group administered with the physiological saline.

[2] = tested on: adhesion of HL-60 cells to HUVEC monolayers (ELAM-1); test: Effect on the adhesion of HL-60 cells to HUVEC monolayers mediated by an adhesion molecule; assay type: cell-based, human; settings: 10 μg/ml final, in lecithin/cholesterol liposome, IL-1β-stimulated HUVEC
Experimental: (Effect on the Adhesion of Cultured Cells Mediated by a Adhesion Molecule)
(2) Experimental methods and materials
HUVECs (Human umbilical vein endothelial cells: KURABO) were suspended in E-GM UV medium at the concentration of 5×10^3 cells/ml, 100-μl each aliquot thereof was distributed into a 96-well microplate and incubated in a 5% CO2 containing air at 37° C. with the medium being replaced fresh 24 h later. The culture was continued for another 5 days, and the following experiment was performed after the confluent growth of the cells was confirmed.
In order to express ELAM-1 on HUVEC monolayers, IL-1β (IL-1β, Human, Recombinant: Genzym) was added to said culture (final concentration, 10 units/ml) and incubated for 4 h, then the test compound (final concentration, 10 μg/ml) containing liposome prepared with lecithin and cholesterol was added and further incubated or 1 h. Then human promyelocytic leukemia cell line […] which had been cultured was added to said culture at the final concentration of 5×10^5 cells/ml and incubated for 15 min. After washing said culture with the culture medium 3 times to remove the non-adhering HL-60 cells, said culture was gently stirred overnight to strip HL-60 cells adhering to HUVEC monolayers and count. Percent inhibition of adhesion (%) was calculated from the following equation [Margaret, J. et al., Proc. Natl. Acad. Sci. USA, 88, 6224 (1991)]. […]

[3] = Simple acute toxicity test (intravenous injection); assay type: in vivo, male mice of ddY strain; settings: 50 mg/kg, ddY mice; for Mortality: i.v. (tail vein); for mortality (in words): i.v.
Experimental: Example of Test 1 (Simple Acute Toxicity Test)
The simple acute toxicity test was carried out by an intravenous injection of compounds of the present invention.
Into the tail vein of male mice of ddY strain weighing 18~20 g which have been kept under the conditions at the temperature of 23°±1° C. and in the humidity of 55 ±7% were injected a solution of the compound of the present invention dissolved in the physiological saline containing the desired dose per 20 g body weighing 0.2 ml. Two dosages of which were 50 mg/kg and 500 mg/kg body weight were used.

Row | SMILES | Percent inhibition (passive Arthus reaction) [1] | Adhesion inhibitory activity [2] | Mortality [3] | mortality (in words) [3]
1 | CCCCCCCCCCCCCC=CC(O)C(COC1OC(CO)C(OC2OC(CO)C(O)C(OC3OC(CO)C(OC4OC(CO)C(O)C(OS(=O)(=O)[O-])C4OS(=O)(=O)[O-])C(OC4OC(C)C(O)C(O)C4O)C3NC(C)=O)C2O)C(O)C1O)NC(=O)CCCCCCCCCCCCCCCCCCCCCCC.[Na+].[Na+] (centres unmarked) [Compound 77] | 40.4 ± 5.1% | 21.0 ± 15.0% | 0/3 | no mortality was observed
2 | CCCCCCCCCCCCCC=CC(O)C(COC1OC(CO)C(OC2OC(CO)C(O)C(OC3OC(CO)C(OC4OC(CO)C(O)C(OS(=O)(=O)[O-])C4O)C(OC4OC(C)C(O)C(O)C4O)C3NC(C)=O)C2O)C(O)C1O)NC(=O)CCCCCCCCCCCCCCCCCCCCCCC.[Na+] (centres unmarked) [Compound 78] | 32.5 ± 7.3% | 20.7 ± 3.7% | 0/3 | no mortality was observed

— patent US5763413A, “Lewis-associated compound, process for producing the same, and anti-inflammatory” (MECT Corporation, priority 1993, dated 1998)
